Experimental data published in patent US7405063B2, “Biooxidation capabilities of Candida sp” (Cognis Corporation, priority 2000, dated 2008).
Read-outs that look alike come from different tables or passages of the source.

Assays:
[1] = tested on: C. tropicalis strain H5343; test: Toxicity tests of substrates (growth by absorbance at 600 nm, streak plates); assay type: cell-based; conditions: 48 h, 30° C., dilution in YPD 1:100
Protocol: The toxicity test used here was similar to that used for the solvents described in Example 1. The goal was to determine the highest concentration at which a substrate could be added to a culture broth without being toxic, inhibiting growth, or interfering with the bioconversion process. C. tropicalis strain H5343 was grown in the presence of the substrate at different concentrations and growth was monitored spectrophotometrically. In order to determine if the substrate was lethal or was simply inhibiting growth, the cultures were examined under the microscope and streak plates of YPD and LB agar were prepared. Contamination of the culture with an unwanted organism could also be detected using this approach.
6 ml was transferred to the first tube and 3 ml to the rest. 1% substrate was added to the first tube and then serially diluted to give concentrations from 1% to 0.015%. Since the last tube was initially empty, the concentration in the last two tubes was the same. […] As a growth-control one culture without substrate was inoculated.
To determine if contamination had occurred, each culture was examined under the microscope and streak plates of both YPD and LB were made from the 1% and the inoculated 0.015% tube.

[2] = tested on: C. tropicalis; test: Toxicity tests of additional substrates (absorbance at 600 nm); assay type: cell-based; conditions: 24 hours, added without solvent
Protocol: Additional substrates were to be tested for bioconversion following a slightly different protocol than the one noted above in Example 3. Those substrates also had to be tested for toxicity similar to the test described in Example 2, to determine the highest concentration at which a substrate could be added to a culture broth without being toxic, inhibiting growth, or interfering with the bioconversion process. C. tropicalis was grown in the presence of the substrate at three different concentrations and growth was monitored spectrophotometrically. In contrast to Example 2, all test substrates were added directly to the culture medium without dissolving in solvent. The tests were completed as follows:
On the first day, H5343 was grown in YPD medium (25.0 ml seed culture) overnight on a rotary shaker at 30° C. and 250 rpm. The next day 1.0 ml of the seed culture was used to inoculate a new flask of 50 ml YPD. This culture was grown overnight on a rotary shaker at 30° C. and 250 rpm. […]
Two control flasks were each inoculated with H5343 in 25 ml YPD. All flasks were incubated on a rotary shaker at 30° C. and 250 rpm.
After 24 hours incubation, the absorbance at 600 nm of the test and control flask cultures was determined, using uninoculated YPD broth as blank. Cultures were diluted so that the OD^600 nm measured between 0.15 and 0.3.
For strongly inhibitory substrates, a concentration of 0.1-0.2% was chosen for the bioconversion tests.

[3] = tested on: C. tropicalis strain H5343; conditions: for nontoxic concentration of solvent: growth of strain H5343; for ABS Lambda = 600.0 nm: 24 h, 30° C., dilution in YPD 1:100

SMILES | Absorbance at 600 nm ([2]; substrate concentration 0.1%) | Absorbance at 600 nm ([2]; substrate concentration 0.5%) | Absorbance at 600 nm ([2]; substrate concentration 1.0%) | nontoxic concentration of solvent [3] [%] | ABS Lambda = 600.0 nm ([3]; solvent concentration 0.25%) | ABS Lambda = 600.0 nm ([3]; solvent concentration 0.5%) | ABS Lambda = 600.0 nm ([3]; solvent concentration 1%) | ABS Lambda = 600.0 nm ([3]; solvent concentration 2%) | ABS Lambda = 600.0 nm ([3]; solvent concentration 4%) | also measured
CCCCCCCCC(CO)CCCCCC (stereo not shown) [2-Hexyl-1-decanol] | 24.43 | 19.73 | 11.93 |  |  |  |  |  |  | ABS 600.0 nm ([1]; substrate concentration 0.01563%): 0.120; ABS 600.0 nm ([1]; substrate concentration 0.0313%): 0.145; ABS 600.0 nm ([1]; substrate concentration 0.063%): 0.110; ABS 600.0 nm ([1]; substrate concentration 0.13%): 0.273; ABS 600.0 nm ([1]; substrate concentration 0.25%): 0.145; ABS 600.0 nm ([1]; substrate concentration 0.5%): 0.122; ABS 600.0 nm ([1]; substrate concentration 1%): 0.117
CCCCCC [Hexane] |  |  |  | 2 | 0.119 | 0.148 | 0.119 | 0.126 | 0.005 | 
CC(C)=O [Acetone] |  |  |  | ≤ 4 | 0.123 | 0.183 | 0.111 | 0.149 | 0.087 | 
CCO [Ethanol] |  |  |  | 4 | 0.122 | 0.104 | 0.137 | 0.119 | 0.090 | 
CCCCC(=O)C(C)C [2-Methyl-3-heptanone] |  |  |  |  |  |  |  |  |  | Absorbance at 600 nm ([2]; substrate concentration 0.06%): 19.2; Absorbance at 600 nm ([2]; substrate concentration 0.3%): 0.099; Absorbance at 600 nm ([2]; substrate concentration 0.6%): 0.125
CCCCCCC(CO)CCCC (stereo not shown) [2-Butyl-1-octanol] | 10.53 | 8.973 | 6.213 |  |  |  |  |  |  | 
